Measurements as given in US20080262080A1, “Allergy Suppressive Agent” (KYUSHU UNIVERSITY, NATIONAL UNIVERSITY CORPORATION, priority 2004, published 2008).

What was measured:
STAT6 = assay: Detection of phosphorylated STAT6 in IL-4-treated DND39 cells; assay type: cell-based, human; settings: IL-4 (100 U/ml), chrysin at various concentrations, 30 min
Procedure: DND39 cells were treated with IL-4 (100 U/ml) and chrysin at various concentrations and then lysed. Each cell lysate was subjected to immunoprecipitation using anti-STAT6 antibody. The immunoprecipitate was subjected to 8% SDS-PAGE and transferred onto a nitrocellulose membrane and phosphorylated STAT6 was detected. The density of DND39 cells was adjusted to 2×10^6 cells/mL and IL-4 (100 U/mL) and chrysin at each concentration were added thereto. Then, the cells were lysed by treating for 30 min. The cell lysate was subjected to immunoprecipitation using anti-STAT6 antibody. The immunoprecipitate was subjected to 8% SDS-PAGE and blotted onto a nitrocellulose membrane. Then phosphorylated STAT6 was detected using anti-tyrosine phosphorylation antibody (PY20).

FcεRI α- and γ-chains = assay: Expression levels of the proteins constituting FcεRI (α- and γ-chains) in KU812 cells, immunoprecipitation and blotting; assay type: cell-based, human; settings: serum-free, 6 hours, β-actin control
Procedure: The expression of each of the FcεRI α- and γ-chains was detected by collecting cells having been incubated by adding chrysin, lysing the cells, conducting immunoprecipitation, subjecting the immunoprecipitate to DS-PAGE and then blotting. β-Actin was employed as a control.
KU812 cells (1×10^6 cells/mL) were incubated under serum-free conditions in RPMI 1640 medium, to which chrysin had been added, for 6 hours. After incubating, the cells were washed with PBS once and then lysed by shaking together with Lysis buffer (composition: 50 mM Tris-HCl pH 7.5, 1% Triton X-100, 150 mM NACl, 1 mM EDTA, 50 mM NaF, 30 mM Na4P2O7, 1 mM PMSF, 2 μg/mL aprotinin, 1 mM pervandate) at 4° C. for 30 min. Subsequently, the mixture was centrifuged at 12,000×g for 10 min at 4° C. to precipitate insoluble matters. The supernatant was collected and proteins were quantified. The samples were diluted with Lysis buffer so that all of them had the same protein concentration, thereby giving lysate samples.
Protein A Sepharose beads (Amersham Pharmacia Biotech) were shaken in Lysis buffer (composition: 50 mM Tris-HCl pH 7.5, 150 mM NACl, 1% Triton X-100, 1 mM EDTA, 50 mM NaF, 30 mM Na4P2O7, 1 mM PMSF, 2 μg/mL aprotinin), to which CRA-1 antibody had been added to give a final concentration of 1 μg/mL, for 2 to 4 hours at 4° C. so as to allow the beads to adsorb CRA-1 antibody. […]

KU812 cells = assay: A23187-induced histamine release from human basophil cell line KU812; assay type: cell-based; settings: 25 μM of chrysin, 5 μM A23187, vs control free from chrysin
Procedure: Human basophil cell line KU812 cells (5×10^6 cells/mL) were incubated in Tyrode buffer comprising 1 mM of CaCl2, to which 25 μM of chrysin had been added, and then stimulated with A23187. Histamine released from the cells and histamine cumulated in the cells were quantified to thereby determine the histamine release rate. Comparison was made with a control system free from chrysin.
Human basophil cell line KU812 cells (5×10^5 cells/mL) were incubated in Tyrode buffer (137 mM NaCl, 2.7 mM KCl, 1.8 mM CaCl2, 1.1 mM MgCl2, 1.19 mM NaHCO3, 0.4 mM NaH2PO4, pH 7.4) comprising 25 μM of chrysin and 1 mM of CaCl2 for 20 min at 37° C. After adding 5 μM of A23187 (Sigma Chemical Co.), the incubation was continued for an additional 20 min at 37° C. […] In a sample for quantifying histamine cumulated in cells, the cells were centrifuged at 300×g for 5 min, ultrasonically disrupted for about 1 min and then centrifuged at 12,000×g for 5 min and 1 mL of the supernatant was collected. To perform fluorescence measurement under alkaline conditions, a complex of histamine and o-phthaldehyde (Wako) was formed and partly extracted. […] The fluorescent intensity was measured using a fluorophotometer RF-1500 at an excitation wavelength of 360 nm and a fluorescent wavelength of 450 nm.

SMILES: O=c1cc(-c2ccccc2)oc2cc(O)cc(O)c12 [Chrysin, 5,7-dihydroxyflavone]
- phosphorylation of STAT6 (STAT6): suppressed
- expression of the proteins constituting FcεRI (α- and γ-chains) (FcεRI α- and γ-chains): suppressive effect
- histamine release induced by A23187 (KU812 cells): significantly lowered
